Reference: ChEMBL document CHEMBL1141927, “Quorum sensing in Vibrio harveyi: probing the specificity of the LuxP binding site” (Bioorg Med Chem Lett, 2005)

Experiment: Effective concentration to induce a quorum signal in Vibrio harveyi(by binding Lux P protein)
Format: functional

EC50 | SMILES
429 µM | CC(=O)C(=O)[C@H](O)[C@H](O)CO
84 µM | CC(=O)C(=O)[C@H](O)CO
560 µM | O=C(CO)[C@@H](O)[C@H](O)CO
27 µM | CC(=O)C(=O)CCO
737 µM | O=C1O[C@H]([C@@H](O)CO)C(O)=C1O [ASCORBIC ACID]
108 µM | O=C(CO)[C@H](O)[C@H](O)CO
0.044 µM | CC(=O)C(=O)[C@@H](O)CO
